In brackets after ≈: the same amount, converted by molar mass. Several values for one entry are separate records, joined by “and”; a condition that tells them apart may be missing. Identical values can stand only once.
Columns and labels:
Test in all cases: ≥ marks a high value that may be exact or a test limit, other limits are often not marked, values filed in µg/mL are converted to µM
[1] = system: Acinetobacter baumannii MTCC 9829
[2] = system: Alcaligenes faecalis MTCC 1937
[3] = system: Alkalihalobacillus alcalophilus MTCC 860
[4] = system: Bordetella bronchiseptica MTCC 6837
[5] = system: Citrobacter freundii MTCC 1658
[6] = system: Citrobacter koseri MTCC 1657
[7] = system: Corynebacterium glutamicum MTCC 2679
[8] = system: Enterococcus faecalis MTCC 439
[9] = system: Escherichia coli K12 MG1655
[10] = system: Haemophilus influenzae MTCC 621
[11] = system: Klebsiella aerogenes MTCC 111
[12] = system: Klebsiella oxytoca MTCC 2275
[13] = system: Klebsiella pneumoniae MTCC 7407
[14] = system: Pluralibacter gergoviae MTCC 3826
[15] = system: Proteus mirabilis MTCC 3158
[16] = system: Proteus vulgaris MTCC 1771
[17] = system: Pseudomonas aeruginosa MTCC 3542
[18] = system: Salmonella enterica MTCC 9844
[19] = system: Salmonella enterica subsp. enterica serovar Typhimurium ATCC 14028
[20] = system: Shigella boydii MTCC 11947
[21] = system: Shigella flexneri MTCC 1457
[22] = system: Staphylococcus aureus MTCC 3160
[23] = system: Staphylococcus haemolyticus MTCC 3383
[24] = system: Stenotrophomonas maltophilia MTCC 1890
[25] = system: Vibrio cholerae MTCC 3904
[26] = system: Bacillus subtilis ATCC 23857
[27] = system: Bacillus subtilis CCT 2576
[28] = system: Candida albicans ATCC 14053
Candida albicans = system: Candida albicans
[29] = system: Candida glabrata ATCC 2001
Candida glabrata = system: Candida glabrata
Candida krusei ATCC 6258 = system: Candida krusei ATCC 6258
[30] = system: Candida tropicalis ATCC 750
[31] = system: Cronobacter sakazakii ATCC 29544
[32] = system: Escherichia coli ATCC 25922
[33] = system: Escherichia coli ATCC 43827
Escherichia coli ML-35 = system: Escherichia coli ML-35
[34] = system: Klebsiella pneumoniae ATCC 700603
[35] = system: Pseudomonas aeruginosa ATCC 15422
[36] = system: Staphylococcus aureus ATCC 25923
[37] = system: Staphylococcus aureus ATCC 29213
[38] = system: Staphylococcus aureus ATCC 6538
[39] = system: Staphylococcus epidermidis ATCC 12228
[40] = system: Escherichia coli ATCC 8739
[41] = system: Pseudomonas aeruginosa H1001

Row | SMILES | MIC [1] | MIC [2] | MIC [3] | MIC [4] | MIC [5] | MIC [6] | MIC [7] | MIC [8] | MIC [9] | MIC [10] | MIC [11] | MIC [12] | MIC [13] | MIC [14] | MIC [15] | MIC [16] | MIC [17] | MIC [18] | MIC [19] | MIC [20] | other results
1 | CC[C@H](C)[C@H](NC(=O)[C@H](CCCCN)NC(=O)[C@H](Cc1ccccc1)NC(=O)[C@H](C)NC(=O)[C@H](C)NC(=O)[C@H](CCCCN)NC(=O)[C@@H](NC(=O)[C@H](CC(C)C)NC(=O)CNC(=O)[C@H](CCCCN)NC(=O)[C@H](Cc1c[nH]c2ccccc12)NC(=O)[C@@H](N)Cc1ccccc1)C(C)C)C(=O)N[C@H](C(=O)N[C@@H](Cc1cnc[nH]1)C(=O)N[C@@H](C)C(=O)NCC(=O)N[C@@H](CO)C(=O)O)C(C)C [FWKGLVKAAFKIVHAGS] | 8.61 µM (≈ 16 µg/mL) | ≥ 68.8 µM | 8.61 µM (≈ 16 µg/mL) | 4.3 µM (≈ 8 µg/mL) | ≥ 68.8 µM | ≥ 34.4 µM | 1.08 µM (≈ 2 µg/mL) | ≥ 68.8 µM | ≥ 34.4 µM | ≥ 68.8 µM | ≥ 68.8 µM | ≥ 34.4 µM | ≥ 68.8 µM | ≥ 68.8 µM | ≥ 68.8 µM | ≥ 68.8 µM | ≥ 68.8 µM | ≥ 68.8 µM | > 68.8 µM | ≥ 68.8 µM | MIC [21]: ≥ 68.8 µM; MIC [22]: ≥ 68.8 µM; MIC [23]: 8.61 µM (≈ 16 µg/mL); MIC [24]: ≥ 68.8 µM; MIC [25]: ≥ 68.8 µM
2 | CC[C@H](C)[C@H](N)C(=O)N[C@@H](CC(C)C)C(=O)NCC(=O)N[C@H](C(=O)N[C@H](C(=O)N[C@@H](CC(C)C)C(=O)NCC(=O)N[C@@H](CC(C)C)C(=O)N[C@@H](CC(C)C)C(=O)N[C@@H](CCCCN)C(=O)N[C@@H](CO)C(=O)N[C@@H](CC(C)C)C(N)=O)[C@@H](C)CC)[C@@H](C)O [ILGTILGLLKSL] | – | – | – | – | – | – | – | – | – | – | – | – | – | – | – | – | – | – | – | – | MIC [26]: 4 µM (≈ 4.96 µg/mL); MIC [27]: 12.1 µM (≈ 15 µg/mL); MIC [28]: 16 µM (≈ 19.8 µg/mL); MIC (Candida albicans): 22.6 µM (≈ 28 µg/mL); MIC [29]: 16 µM (≈ 19.8 µg/mL); MIC (Candida glabrata): 16 µM (≈ 19.8 µg/mL); MIC (Candida krusei ATCC 6258): ≥ 32 µM; MIC [30]: 4 µM (≈ 4.96 µg/mL); MIC [31]: ≥ 64 µM; MIC [32]: 32 µM (≈ 39.7 µg/mL); MIC [33]: ≥ 32 µM; MIC (Escherichia coli ML-35): ≥ 64 µM; MIC [34]: 128 µM (≈ 159 µg/mL); MIC [35]: ≥ 202 µM; MIC [36]: 8 µM (≈ 9.92 µg/mL); MIC [37]: 4 µM (≈ 4.96 µg/mL); MIC [38]: 12.1 µM (≈ 15 µg/mL); MIC [39]: 8 µM and > 4 µM
3 | CC[C@H](C)[C@H](NC(=O)[C@H](C)NC(=O)[C@H](CC(N)=O)NC(=O)[C@H](CCSC)NC(=O)[C@@H]1CCCN1)C(=O)N[C@@H](CCCCN)C(=O)N[C@@H](CC(C)C)C(=O)N[C@@H](CC(C)C)C(=O)N[C@@H](CS)C(=O)N[C@@H](CCCN=C(N)N)C(=O)N[C@H](C(=O)N[C@@H](Cc1cnc[nH]1)C(=O)N[C@@H](CCCCN)C(=O)N[C@@H](CCCCN)C(=O)N[C@H](C(=O)N[C@@H](C)C(=O)N[C@H](C(=O)N[C@@H](CO)C(=O)N[C@H](C(=O)O)C(C)C)[C@@H](C)CC)[C@@H](C)CC)C(C)C [PMNAIKLLCRVHKKIAISV] | – | – | – | – | – | – | – | – | – | – | – | – | – | – | – | – | – | – | – | – | MIC [40]: ≥ 60 µM; MIC [41]: 5.86 µM (≈ 12.5 µg/mL)
4 | CC(C)C[C@H](NC(=O)[C@H](Cc1ccc(O)cc1)NC(=O)[C@@H]1CCCN1C(=O)[C@@H]1CCCN1C(=O)[C@H](CCCCN)NC(=O)[C@H](CC(=O)O)NC(=O)[C@@H](N)C(C)C)C(=O)N1CCC[C@H]1C(=O)N[C@@H](CCCN=C(N)N)C(=O)N1CCC[C@H]1C(=O)N[C@@H](CCCN=C(N)N)C(=O)N1CCC[C@H]1C(=O)N1CCC[C@H]1C(=O)N[C@@H](CCCN=C(N)N)C(=O)N[C@@H](CCCN=C(N)N)C(=O)N[C@@H](Cc1ccccc1)C(=O)N[C@@H](Cc1ccc(O)cc1)C(=O)N[C@@H](CC(N)=O)C(=O)N[C@@H](CCCN=C(N)N)C(=O)NCC(=O)O [VDKPPYLPRPRPPRRFYNRG] | – | – | – | – | – | – | – | – | – | – | – | – | – | – | – | – | – | – | – | – | MIC [41]: 0.105 µM (≈ 0.26 µg/mL)
5 | CC[C@H](C)[C@H](NC(=O)[C@H](Cc1cnc[nH]1)NC(=O)[C@H](Cc1cnc[nH]1)NC(=O)[C@@H](NC(=O)[C@@H](NC(=O)[C@H](CCCCN)NC(=O)[C@@H](NC(=O)[C@@H](NC(=O)[C@H](CCCCN)NC(=O)[C@H](Cc1cnc[nH]1)NC(=O)[C@H](Cc1ccccc1)NC(=O)[C@H](C)NC(=O)[C@H](CO)NC(=O)[C@H](CC(C)C)NC(=O)[C@@H](N)C(C)C)C(C)C)[C@@H](C)CC)[C@@H](C)CC)[C@@H](C)CC)C(=O)N[C@@H](CO)C(=O)N[C@@H](Cc1cnc[nH]1)C(=O)N[C@@H](Cc1ccccc1)C(=O)O [VLSAFHKVIKIIHHISHF] | 7.52 µM (≈ 16 µg/mL) | ≥ 60.2 µM | 15 µM (≈ 32 µg/mL) | 1.88 µM (≈ 4 µg/mL) | ≥ 60.2 µM | 7.52 µM (≈ 16 µg/mL) | 1.88 µM (≈ 4 µg/mL) | ≥ 60.2 µM | 15 µM (≈ 32 µg/mL) | 3.76 µM (≈ 8 µg/mL) | ≥ 60.2 µM | ≥ 60.2 µM | ≥ 60.2 µM | ≥ 60.2 µM | ≥ 60.2 µM | ≥ 60.2 µM | ≥ 60.2 µM | 15 µM (≈ 32 µg/mL) | > 60.2 µM | 7.52 µM (≈ 16 µg/mL) | MIC [21]: 3.76 µM (≈ 8 µg/mL); MIC [22]: ≥ 60.2 µM; MIC [23]: 15 µM (≈ 32 µg/mL); MIC [24]: ≥ 60.2 µM; MIC [25]: ≥ 60.2 µM

— DBAASP
